Results: patent publication US12018016B2, “Aryl sulfonyl (hydroxy) piperidines as CCR6 inhibitors” (CHEMOCENTRYX, INC., priority 2021, dated 2024)

The molecules below were run against T1, human CCR6 (Homo sapiens, UniProt P51684) (assay: Migration assay (chemotaxis, ChemoTX)). Settings: hCCR6-transfected Ba/F3 cells in human serum, migration to recombinant human CCL20 10 nM, 37° C. 45 minutes; read-out: Potency (IC50 value in the migration assay).
T1 construct: expressed in transfected cells; host or cells: Ba/F3 cells (mouse pro-B line)
T1 sequence (P51684 1-374): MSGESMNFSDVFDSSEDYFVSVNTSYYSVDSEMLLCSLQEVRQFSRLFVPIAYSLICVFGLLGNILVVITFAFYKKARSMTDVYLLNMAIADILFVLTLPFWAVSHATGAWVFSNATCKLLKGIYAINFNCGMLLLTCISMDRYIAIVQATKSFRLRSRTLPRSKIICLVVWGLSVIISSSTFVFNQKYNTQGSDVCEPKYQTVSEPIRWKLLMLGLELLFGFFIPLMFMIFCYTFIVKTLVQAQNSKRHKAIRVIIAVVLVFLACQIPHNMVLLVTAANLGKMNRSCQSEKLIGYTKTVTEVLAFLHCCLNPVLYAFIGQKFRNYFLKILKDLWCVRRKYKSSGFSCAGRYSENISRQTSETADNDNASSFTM
Format: cell-based
How it was run: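 Ba/F3 cells transfected with human CCR6 and butyrate-primed for 24 h were suspended at 4 million/ml in human serum with compound, serially diluted from a 1 μM final top concentration. Cells migrated through a 5-μm polycarbonate membrane toward 10 nM human CCL20 for 45 min at 37 °C. Migrated cells were quantified by CyQUANT fluorescence.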

SMILES	IC50 [nM]
COc1cc(-c2ccc(S(=O)(=O)N3CC[C@@H](Nc4ccc(C(F)(F)F)cn4)[C@@H](O)C3)cc2)cc2c1NC(=O)C2 [Example 15, 5-(4-(((3S,4R)-3-hydroxy-4-((5-(trifluoromethyl)pyridin-2-yl)amino)piperidin-1-yl)sulfonyl)phenyl)-7-methoxyindolin-2-one]	< 1
CC(C)(O)C1CN(c2cc(-c3ccc(S(=O)(=O)N4CC[C@@H](Nc5ccc(C(F)(F)F)cn5)[C@@H](O)C4)cc3)ccn2)C1 [Compound 132]	< 1
N#Cc1n[nH]c2c(F)cc(-c3ccc(S(=O)(=O)N4CC[C@@H](Nc5ccc(C(F)(F)F)cn5)[C@@H](O)C4)cc3)cc12 [Compound 77, 7-fluoro-5-(4-(((3S,4R)-3-hydroxy-4-((5-(trifluoromethyl)pyridin-2-yl)amino)piperidin-1-yl)sulfonyl)phenyl)-1H-indazole-3-carbonitrile]	< 1

Continued, values first:

IC50 [nM]	SMILES
1 to 10	N#Cc1cc(-c2ccc(S(=O)(=O)N3CC[C@@H](Nc4ccc(C(F)(F)F)cn4)[C@@H](O)C3)cc2)cnn1 [Compound 199]
< 1	O=S(=O)(c1ccc(-c2ccnc(NC3CCC3)c2)cc1)N1CC[C@@H](Nc2ccc(C(F)(F)F)cn2)[C@@H](O)C1 [Compound 140]
1 to 10	COc1ccc(-c2ccc(S(=O)(=O)N3CC[C@@H](Nc4ccc(C(F)(F)F)cn4)[C@@H](O)C3)cc2)cn1 [Compound 154]
